The source of these data is paper PMC10743929, “Amphiphilic Sialic Acid Derivatives as Potential Dual-Specific Inhibitors of Influenza Hemagglutinin and Neuraminidase” (International Journal of Molecular Sciences, 2023).

Entries after “also recorded” stand apart in the source; their conditions may differ. Like-named read-outs stand apart in the source and are kept apart here. Marks after values point to notes of the source that are not given here.

In one data set the test system is viral neuraminidase. The following applies: cited from earlier work.
The subject of a further data set is hemagglutinin. The following applies: cited from earlier work.
A further data set can be described thus: in vitro. The following applies: dog.
In another data set the test system is IBV. The data set can be described thus: CPE reduction assay, influenza B in MDCK cells. In kind it is cell-based, influenza B virus (B/Ned/537/05). The following applies: Influenza B virus, 72 h. Here is the method: (§1) The process of CPE reduction assay for the influenza virus was described previously. The virus strains were A/Virginia/ATCC3/2009, A/PR/8 (A/H1N1), A/Victoria/361/11, A/HK/7/87 (A/H3N2), and B/Ned/537/05 (IBV). On day 0, Madin-Darby canine kidney (MDCK) cells in 96-well plates were infected with influenza virus at a multiplicity of infection (MOI) of 0.0004 plaque forming units (PFU) per cell, and that was incubated at 35 °C for 3 days. After the third day, virus-induced CPE and compound cytotoxicity were scored by microscopy, and the data were confirmed by formazan-based MTS cell viability assay (CellTiter 96® AQueous One Solution Cell Proliferation Assay from Promega, Madison, WI, USA). […] Compound cytotoxicity was expressed as the concentration of the compound causing minimal changes in cell morphology (MCC) and 50% cytotoxic concentration (CC50) based on the MTS assay.

The subject of the next data set is IAV (A/H3N2). The data set can be described thus: CPE reduction assay, influenza A/H3N2 in MDCK cells. In kind it is cell-based, influenza A virus A/H3N2 (A/Victoria/361/11 or A/HK/7/87). The following applies: Influenza A virus, H3N2, 72 h. Here is the method:
as §1

For the next data set, the system named is IAV (A/H1N1). The data set can be described thus: CPE reduction assay, influenza A/H1N1 in MDCK cells. The following applies: Influenza A virus, H1N1, 72 h. In kind it is cell-based, influenza A virus A/H1N1 (A/Virginia/ATCC3/2009 or A/PR/8). The procedure:
as §1

In data set [1] the test system is Madin-Darby canine kidney (MDCK) cells. The data set can be described thus: Compound cytotoxicity in MDCK cells (microscopy, MTS). The following applies: microscopically visible alterations in cell morphology.
Another data set deals with H3N2 Hemagglutinin (Influenza A virus, UniProt P03437). The data set can be described thus: SPR affinity toward immobilized H3N2 hemagglutinin. In kind it is binding, influenza type H3N2 (A/Aichi/2/1968). The following applies: for Kd: KD(app). Here is the method: (§2) SPR experiments were conducted using a BIAcore S200 instrument (Cytiva, Marlborough, MA, USA) employing a CM5 chip with a carboxymethyldextran surface (Cytiva, USA). Hemagglutinins (ThermoFisher Scientific, Invitrogen, Waltham, MA, USA) from influenza type H3N2 (A/Aichi/2/1968) and H1N1 (A/Puerto Rico/8/34), as well as neuraminidase (Invitrogen, USA) from H1N1 (A/California/04/2009), were immobilized on the chip surface following the standard amine coupling procedure outlined in the manufacturer’s instructions. This immobilization process was performed at a flow rate of 10 μL/min using PBST as the running buffer. The chip surface was initially activated using an N-ethyl-N-(3-dimethylaminopropyl)carbodiimide/N-hydroxysuccinimide solution. Subsequently, 50 μg/mL solutions of individual proteins in 10 mM sodium acetate, pH 5, were injected into channels 2, 3, and 4, respectively. To block any unreacted groups, all channels were treated with 1 M ethanolamine, resulting in a final response of 4500 RU for HAs and 2700 RU for neuraminidase. Channel 1 was activated and blocked in the same manner, without the injection of any protein, serving as a blank.
(§3) Tested compounds in a PBST working buffer (20 mM Na-phosphate, 150 mM NaCl, pH 7.4, 0.005% Tween 20, 5% DMSO) were injected into the chip at a flow rate of 30 μL/min at 25 °C. The injection duration was 3 min, followed by a 10 min buffer flow to facilitate spontaneous dissociation. Each compound was injected as a two-fold dilution series within a concentration range of 0.78–800 μM (2.44–2500 μM for sialic acid). After each compound concentration series, five buffer injections were performed to ensure complete dissociation. To determine the apparent KD toward the immobilized proteins, the steady-state responses of the blank-subtracted curves from each replicate were fitted using a single-site binding model.
(§4) In experiments conducted in a DMSO-free buffer (20 mM Na-phosphate, 150 mM NaCl, pH 7.4, 0.005% Tween 20), each replicate was followed by a two-fold dilution series of DMSO, matching the DMSO concentration in the compound solutions. In this case, the steady-state response of the blank-subtracted curve was corrected by the corresponding blank-subtracted DMSO steady-state response. The final values from each replicate were fitted using a single-site binding model using Origin 7 (OriginLab Corporation, Northampton, MA, USA).
(§5) For all experiments, the final KD(app) and Rmax values, along with their standard deviations, were obtained through statistical analysis based on three replicates.

The nature of data set [2]: Dynamic light scattering of aggregates. The following applies: RSD of 3 measurements in brackets.
The target of the next data set is H1N1 Neuraminidase (Influenza A virus, UniProt C3W5S3). The data set can be described thus: SPR affinity toward immobilized H1N1 neuraminidase. In kind it is binding, influenza H1N1 (A/California/04/2009). The following applies: PBST with 5% DMSO, 25 °C. Here is the method: as §2, §3, §5
The target in the next data set is H1N1 Hemagglutinin (Influenza A virus, UniProt P03452). The data set can be described thus: SPR affinity toward immobilized H1N1 hemagglutinin. In kind it is binding, influenza type H1N1 (A/Puerto Rico/8/34). The following applies: for Kd: KD(app). The procedure: as §2, §3, §4, §5
Sequence of H1N1 Hemagglutinin (P03452 18-565): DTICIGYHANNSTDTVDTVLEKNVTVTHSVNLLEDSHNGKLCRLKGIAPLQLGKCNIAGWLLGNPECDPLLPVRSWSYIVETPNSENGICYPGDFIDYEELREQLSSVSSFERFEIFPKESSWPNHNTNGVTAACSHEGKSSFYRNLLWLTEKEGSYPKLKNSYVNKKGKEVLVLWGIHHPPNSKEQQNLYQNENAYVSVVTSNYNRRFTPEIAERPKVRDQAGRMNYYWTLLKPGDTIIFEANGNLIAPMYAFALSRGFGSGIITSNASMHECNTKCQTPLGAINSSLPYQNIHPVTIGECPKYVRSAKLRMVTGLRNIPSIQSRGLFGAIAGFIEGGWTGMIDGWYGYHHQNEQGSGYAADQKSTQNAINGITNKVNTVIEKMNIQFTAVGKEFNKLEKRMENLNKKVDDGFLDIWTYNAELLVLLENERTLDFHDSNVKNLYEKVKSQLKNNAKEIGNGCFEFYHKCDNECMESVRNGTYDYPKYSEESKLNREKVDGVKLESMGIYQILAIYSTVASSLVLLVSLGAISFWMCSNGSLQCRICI
For another data set, the system named is influenza A strains. The data set can be described thus: Anti-influenza activity against influenza A strains (H1N1 and H3N2) in MDCK cells. In kind it is cell-based, influenza A virus (H1N1 and H3N2 types). Here is the method: as §1
In data set [3] the test system is Madin-Darby canine kidney (MDCK) cells. The following applies: dog, 3 days.
Setting [4] is: MTS cell viability assay, day 3, read-out: Antiviral EC50, IBV, MTS.
Where [5] appears, read: microscopic scoring of cytopathic effect, day 3, read-out: Antiviral EC50, IBV, CPE.
[6] abbreviates: MTS cell viability assay, day 3, read-out: Antiviral EC50, IAV (A/H3N2), MTS.
The mark [7] stands for this setting: microscopic scoring of cytopathic effect, day 3, read-out: Antiviral EC50, IAV (A/H3N2), CPE.
Where [8] appears, read: MTS cell viability assay, day 3, read-out: Antiviral EC50, IAV (A/H1N1), MTS.
Setting [9] is: microscopic scoring of cytopathic effect, day 3, read-out: Antiviral EC50, IAV (A/H1N1), CPE.

Turning to `CC(=O)NC1C(OC(=O)CNS(=O)(=O)c2cccc3c(N(C)C)cccc23)CC(OCCCCCCC(=O)NCc2cccc3ccccc23)(C(=O)O)OC1C(O)C(O)CO` (stereo not shown) [Compound 2], the “substrate for viral neuraminidase (in words)” value in the data set on viral neuraminidase is on record as “not a substrate”. In addition, the “affinity for hemagglutinin (in words)” value with hemagglutinin is given as “high affinity”.

As for `CC(=O)N[C@H]1[C@H]([C@H](O)[C@H](O)CO)OC(C(=O)O)=C[C@@H]1N=C(N)N` [Zanamivir, reference compound], the CC50 in “in vitro” is greater than 100 µM. For the same molecule, the EC50 with IBV (setting [4]) worked out at 4.5 µM; with IBV (setting [5]) it was 2.1 µM; in the data set with IAV (A/H3N2) (setting [6]) it was 1 µM; in the data set with IAV (A/H3N2) (setting [7]), 1.6 µM; in the data set on IAV (A/H1N1) (setting [8]), 8.5 ± 3.4 µM; with IAV (A/H1N1) (setting [9]) it was 10 ± 3 µM. Moreover, in [1], the “Cytotoxicity MCC (minimum cytotoxic concentration)” value is recorded as greater than 100 µM.

In the case of `CCCCCCCCOC1C(OC)OC(COCCOCCOCCOCCn2cc(CSC3(C(=O)O)CC(O)C(NC(C)=O)C(C(O)C(O)CO)O3)nn2)C(OCc2ccc(OC)cc2)C1OCCCCCCCC` (stereo not shown) [Compound 12b], the “Rmax, H3N2 hemagglutinin, absence of DMSO” value at H3N2 Hemagglutinin (DMSO-free running buffer) amounted to 454 ± 39 RU. For the same molecule, the Kd on H3N2 Hemagglutinin (H3N2 Hemagglutinin, PBST with 5% DMSO, 25 °C, steady-state single-site fit) stood at 124 ± 21 µM; at H3N2 Hemagglutinin (H3N2 hemagglutinin, absence of DMSO, DMSO-free running buffer) it was 279 ± 98 µM; at H1N1 Hemagglutinin (H1N1 Hemagglutinin, PBST with 5% DMSO, 25 °C, steady-state single-site fit), 161 ± 20 µM; on H1N1 Hemagglutinin (H1N1 hemagglutinin, absence of DMSO, DMSO-free running buffer) it was 187 ± 41 µM. For the same molecule, the “Rmax, H3N2 Hemagglutinin” value at H3N2 Hemagglutinin (PBST with 5% DMSO, 25 °C) came out at 135 ± 11 RU. This molecule also gave a CC50 in “in vitro” of 34 ± 13 µM. The EC50 is greater than 100 µM in the data set on IBV (setting [4]); greater than 100 µM with IBV (setting [5]); 8.7 ± 3.6 µM in the data set with IAV (A/H3N2) (setting [6]); 8.9 µM in the data set on IAV (A/H3N2) (setting [7]); 15 ± 5 µM in the data set with IAV (A/H1N1) (setting [8]); 8.9 µM in the data set on IAV (A/H1N1) (setting [9]). In addition, the “d (average diameter of particles, DLS)” value in data set [2] (0.1 mg/mL (diluted with water), 25 °C) is listed as 108 (13.4%) ^a nm; in data set [2] (1 mg/mL in water/DMSO 9:1, 25 °C), 96 (1.19%) ^a nm. Besides, the “Rmax, H1N1 Neuraminidase” value on H1N1 Neuraminidase was found to be 175 ± 23 RU. Further, on H1N1 Hemagglutinin (DMSO-free running buffer), the “Rmax, H1N1 hemagglutinin, absence of DMSO” value is recorded as 305 ± 30 RU. For the same molecule, on H1N1 Hemagglutinin (PBST with 5% DMSO, 25 °C), the “Rmax, H1N1 Hemagglutinin” value came out at 130 ± 12 RU. Also, the “activity against influenza A strains (in words)” value in the data set on influenza A strains (MDCK cells, H1N1 and H3N2) is reported as “effective; also recorded: moderate effect”. In the data set with influenza A strains (both determined by MTS assay, at best), the “ratio of CC50 to EC50 (selectivity)” value is no more than 4 factor. Moreover, the “Cytotoxicity MCC (minimum cytotoxic concentration)” value in [3] was 39 ± 20 µM.
